Like-named read-outs stand apart in the source and are kept apart here.
How the values were obtained:
Format in all cases: cell-based
MKN1 cells = test: MKN1 cell proliferation (CellTiter-Glo); details: 0.5% DMSO, read-out: CTG(IC50) ABS-72 H(nM) MKN1
Experimental: (§1) AGS, A-427, ASPC1, SW 1990, and GP2D cells were plated in 96-well tissue culture plates at 4,000 cells/well and incubated at 37° […] for 72 hr in 100 μl of media. 3-old serial dilutions of each test compound were prepared ranging from 20 μM to 1.02 nM. Each cell line was then treated with test compounds at various concentrations with a final concentration of 0.5% DMSO/well, and then incubated at 37° C./5% CO2 for 72 hr. 100 μl of CellTiter-Glo® Reagent (Promega Corporation, Madison, WI) was added to each well and processed according manufacturer's protocol. Results were analyzed and IC50 values were calculated in GraphPad 7 software. AGS proliferation assay: A. EC50<100 nM; B. EC50=100-1000 nM; C. EC50>1000 nM; GP2D proliferation assay: A. EC50<100 nM; B. EC50=100-1000 nM; C. EC50>1000 nM; MKN1 proliferation assay: A. EC50<100 nM; B. EC50=100-1000 nM; C. EC50>1000 nM;

GP2D cells = test: GP2D cell proliferation (CellTiter-Glo); details: 72 hr, 0.5% DMSO, read-out: CTG(IC50) ABS-72 H(nM) GP2D
Experimental: as §1

AGS cells = test: AGS cell proliferation (CellTiter-Glo); details: AGS gastric carcinoma [heterozygous G12D], 72 hr, 0.5% DMSO, read-out: CTG(IC50) ABS-72 H(nM) AGS
Experimental: The following cancer cell lines were employed: AGS gastric carcinoma [heterozygous G12D](ATCC, CRL-1739); A-427 lung carcinoma [heterozygous G12D](ATCC, HTB-53); ASPC1 pancreatic adenocarcinoma [homozygous G12D](ATCC, CRL-1682) and SW 1990 pancreatic adenocarcinoma [homozygous G12D](ATCC CRL-2172). Cell lines were cultured essentially according to ATCC recommendations.
as §1

Molecule: C#Cc1c(F)ccc2cc(O)cc(-c3nc(OC)c4c(N5CC6CCC(C5)N6CCC#N)nc(OCC5(CN6CC7CC7C6)CC5)nc4c3F)c12 (centres unmarked) [Compound 3]
- IC50 (MKN1 cells; Homo sapiens, MKN-1, 72 hr): > 1000 nM
- IC50 (GP2D cells): < 100 nM
- IC50 (AGS cells; Homo sapiens): 100 to 1000 nM

Molecule: 2-(3-(2-[(1-(3-azabicyclo[3.1.0]hexan-3-ylmethylcyclopropyl) methoxy]-7-(8-ethynyl-7-fluoro-3-hydroxynaphthalen-1-yl)-8-fluoro-5-methoxypyrido[4,3-d]pyrimidin-4-yl-3,8-diazabicyclo[3.2.1]octan-8-yl)acetonitrile [Compound 1]
- IC50 (MKN1 cells; 72 hr): > 1000 nM
- IC50 (GP2D cells): < 100 nM
- IC50 (AGS cells): < 100 nM

Molecule: C#Cc1c(F)ccc2cc(O)cc(-c3nc(OC)c4c(N5CC6CCC(C5)N6CCC(=O)O)nc(OCC5(CN6CCC(F)CC6)CC5)nc4c3F)c12 [Compound 16]
- IC50 (MKN1 cells; Homo sapiens, MKN-1, 72 hr): > 1000 nM
- IC50 (GP2D cells): 100 to 1000 nM
- IC50 (AGS cells; Homo sapiens): > 1000 nM

Molecule: C#Cc1c(F)ccc2cc(O)cc(-c3nc(OC)c4c(N5CC6CCC(C5)N6CCO)nc(OCC5(CN6CC7CC7C6)CC5)nc4c3F)c12 (centres unmarked) [Compound 6]
- IC50 (MKN1 cells; Homo sapiens, MKN-1, 72 hr): 100 to 1000 nM
- IC50 (GP2D cells): < 100 nM
- IC50 (AGS cells; Homo sapiens): 100 to 1000 nM

Molecule: C#Cc1c(F)ccc2cc(O)cc(-c3nc(OC)c4c(N5CC6CCC(C5)N6CC(=O)O)nc(OCC5(CN6CCC(F)CC6)CC5)nc4c3F)c12 [Compound 18]
- IC50 (MKN1 cells; Homo sapiens, MKN-1, 72 hr): > 1000 nM
- IC50 (AGS cells; Homo sapiens): > 1000 nM

Molecule: C#Cc1c(F)ccc2cc(O)cc(-c3nc(OC)c4c(N5CC6CCC(C5)N6CC(C)=O)nc(OCC5(CN6CC7CC7C6)CC5)nc4c3F)c12 (centres unmarked) [Compound 12]
- IC50 (MKN1 cells; Homo sapiens, MKN-1, 72 hr): > 1000 nM
- IC50 (GP2D cells): < 100 nM
- IC50 (AGS cells; Homo sapiens): < 100 nM

Molecule: C#Cc1c(F)ccc2cc(O)cc(-c3nc(OC)c4c(N5CC6CCC(C5)N6CC#N)nc(OC[C@]56CCCN5C[C@@H](F)C6)nc4c3F)c12 [Compound 8]
- IC50 (MKN1 cells; Homo sapiens, MKN-1, 72 hr): > 1000 nM
- IC50 (GP2D cells): < 100 nM
- IC50 (AGS cells; Homo sapiens): < 100 nM

Molecule: C#Cc1c(F)ccc2cc(O)cc(-c3nc(OC)c4c(N5CC6CCC(C5)N6CCCF)nc(OCC5(CN6CCC(F)CC6)CC5)nc4c3F)c12 [Compound 17]
- IC50 (MKN1 cells; Homo sapiens, MKN-1, 72 hr): > 1000 nM
- IC50 (GP2D cells): < 100 nM
- IC50 (AGS cells; Homo sapiens): 100 to 1000 nM

Molecule: C#Cc1c(F)ccc2cc(O)cc(-c3nc(OC)c4c(N5CC6CCC(C5)N6CCOC)nc(OCC5(CN6CC7CC7C6)CC5)nc4c3F)c12 (centres unmarked) [Compound 5]
- IC50 (MKN1 cells; Homo sapiens, MKN-1, 72 hr): > 1000 nM
- IC50 (GP2D cells): < 100 nM
- IC50 (AGS cells; Homo sapiens): 100 to 1000 nM

Molecule: C#Cc1c(F)ccc2cc(O)cc(-c3nc(OC)c4c(N5CC6CCC(C5)N6CC(F)(F)F)nc(OCC5(CN6CC7CC7C6)CC5)nc4c3F)c12 (centres unmarked) [Compound 4]
- IC50 (MKN1 cells; Homo sapiens, MKN-1, 72 hr): > 1000 nM
- IC50 (GP2D cells): 100 to 1000 nM
- IC50 (AGS cells; Homo sapiens): > 1000 nM

Molecule: C#Cc1c(F)ccc2cc(O)cc(-c3nc(OC)c4c(N5CC6CCC(C5)N6CCCO)nc(OCC5(CN6CC7CC7C6)CC5)nc4c3F)c12 (centres unmarked) [Compound 7]
- IC50 (MKN1 cells; Homo sapiens, MKN-1, 72 hr): 100 to 1000 nM
- IC50 (GP2D cells): < 100 nM
- IC50 (AGS cells; Homo sapiens): 100 to 1000 nM

Molecule: C#CCN1C2CCC1CN(c1nc(OCC3(CN4CC5CC5C4)CC3)nc3c(F)c(-c4cc(O)cc5ccc(F)c(C#C)c45)nc(OC)c13)C2 (centres unmarked) [Compound 9]
- IC50 (MKN1 cells; Homo sapiens, MKN-1, 72 hr): > 1000 nM
- IC50 (GP2D cells): < 100 nM
- IC50 (AGS cells; Homo sapiens): < 100 nM

Molecule: [2H]C([2H])([2H])Oc1nc(-c2cc(O)cc3ccc(F)c(C#C)c23)c(F)c2nc(OCC3(CN4CC5CC5C4)CC3)nc(N3CC4CCC(C3)N4C#N)c12 (centres unmarked) [Compound 10]
- IC50 (MKN1 cells; Homo sapiens, MKN-1, 72 hr): 100 to 1000 nM
- IC50 (GP2D cells): < 100 nM
- IC50 (AGS cells; Homo sapiens): 100 to 1000 nM

Molecule: C#Cc1c(F)ccc2cc(O)cc(-c3nc(OC)c4c(N5CC6CCC(C5)N6C(=O)C#N)nc(OCC5(CN6CC7CC7C6)CC5)nc4c3F)c12 (centres unmarked) [Compound 2]
- IC50 (MKN1 cells; Homo sapiens, MKN-1, 72 hr): 100 to 1000 nM
- IC50 (GP2D cells): < 100 nM
- IC50 (AGS cells; Homo sapiens): < 100 nM

Molecule: C#Cc1c(F)ccc2cc(O)cc(-c3nc(OC)c4c(N5CC6CCC(C5)N6CC(F)F)nc(OCC5(CN6CC7CC7C6)CC5)nc4c3F)c12 (centres unmarked) [Compound 13]
- IC50 (MKN1 cells; Homo sapiens, MKN-1, 72 hr): > 1000 nM
- IC50 (GP2D cells): 100 to 1000 nM
- IC50 (AGS cells; Homo sapiens): 100 to 1000 nM

Molecule: C#Cc1c(F)ccc2cc(O)cc(-c3nc(OC)c4c(N5CC6CCC(C5)N6CCCC#N)nc(OCC5(CN6CC7CC7C6)CC5)nc4c3F)c12 (centres unmarked) [Compound 14]
- IC50 (MKN1 cells; Homo sapiens, MKN-1, 72 hr): 100 to 1000 nM
- IC50 (GP2D cells): < 100 nM
- IC50 (AGS cells; Homo sapiens): < 100 nM

Molecule: [2H]C([2H])([2H])Oc1nc(-c2cc(O)cc3ccc(F)c(C#C)c23)c(F)c2nc(OCC3(CN4CC5CC5C4)CC3)nc(N3CC4CCC(C3)N4CC#N)c12 (centres unmarked) [Compound 11]
- IC50 (MKN1 cells; Homo sapiens, MKN-1, 72 hr): 100 to 1000 nM
- IC50 (GP2D cells): < 100 nM
- IC50 (AGS cells; Homo sapiens): < 100 nM

Molecule: C#Cc1c(F)ccc2cc(O)cc(-c3nc(OC)c4c(N5CC6CCC(C5)N6C(C)CCC#N)nc(OCC5(CN6CC7CC7C6)CC5)nc4c3F)c12 (centres unmarked) [Compound 15]
- IC50 (MKN1 cells; Homo sapiens, MKN-1, 72 hr): > 1000 nM
- IC50 (GP2D cells): > 1000 nM
- IC50 (AGS cells; Homo sapiens): 100 to 1000 nM
